According to US20080064679A1, “Water Soluble Cannabinoids” (priority 2004, published 2008):
Values joined by “and” are separate entries in the source; they are usually repeats but may differ in a detail not shown here. Equal entries are not always repeated. Where two headings read alike, the source gives them in different places.

Legend:
human CB2 receptor = biological target: T1, human CB2 receptor (Homo sapiens, UniProt P34972); test: CB2 receptor binding, [3H]CP55,940 displacement in membranes of transfected cells; settings: mean±SEM, read-out: CB2 Ki
T1 construct: expressed in transfected cells; b94 says HEK for CB2
Procedure: cLogP calculations. Absolute solubility determinations were not performed. Rather, cLogP calculations were performed using the CS ChemDraw Ultra software (Cambridge Soft Corporation, Cambridge, Mass.). Receptor Binding. HEK-293 cells stably expressing the human CB1 receptor were cultured in DMEM with 10% FBS and Chinese Hamster Ovary (CHO) cells stably expressing the human CB2 receptor were cultured in DMEM with 10% FCS. Cells were harvested by replacement of the media with cold phosphate-buffered saline containing 1 mM EDTA followed by centrifugation at 1000×g for 5 min at 4° C. The pellet was resuspended in 50 mM Tris-HCl containing 320 mM sucrose, 2 mM EDTA and 5 mM MgCl2 (pH 7.4) (centrifugation buffer), then centrifuged at 1000×g for 10 min at 4° C., and the resulting supernatant was saved. This process was repeated twice. The supernatant fractions were combined and centrifuged at 40,000×g for 30 min at 4° C. The resulting P2 pellet was resuspended in assay buffer (50 mM Tris-HCl (pH 7.4), 3 mM MgCl2, 0.2 mM EGTA, and 100 mM NaCl) and protein was determined by the method of Bradford ENRfu(Bradford 1976). Membranes were stored at −80° C. until use. […] The assay was incubated at 30° C. for 1 hr and terminated by addition of ice cold 50 mM Tris-HCl plus BSA (1 mg/ml) (pH 7.4) followed by filtration under vacuum through Whatman GF/B glass fiber filters with 3 washes with cold Tris buffer. Bound radioactivity was determined by liquid scintillation spectrophotometry at 50% efficiency after extraction by shaking samples for 30-60 min with Budget-Solve scintillation fluid. Data are reported as the mean±SEM of three experiments, each performed in triplicate. Ki values were calculated from displacement data using EBDA (Equilibrium Binding Data Analysis; BIOSOFT, Milltown, N.J.). [^35S]GTPγS Binding Assays. Concentration-effect curves were generated by incubating membranes (10 μg prepared from CB1 expressing cells as described above) in assay buffer containing BSA (1 mg/ml) with various concentrations of test compounds in the presence of 20 μM GDP and 0.1 nM [^35S]GTPγS in a 1 ml total volume. […] Basal binding was assessed in the absence of agonist, and nonspecific binding was measured in the presence of 10 μM GTPγS. The reaction was incubated for 90 min at 30° C. and terminated by filtration under vacuum through Whatman GF/B glass fiber filters with 3 washes with cold (4° C.) Tris buffer (50 mM Tris-HCl, pH 7.4). Bound radioactivity was determined by liquid scintillation spectrophotometry at 95% efficiency after extraction overnight in ScintiSafe Econo 1 scintillation fluid. Data are reported as mean±SEM of three experiments, each performed in triplicate. Nonlinear regression analysis was conducted by iterative fitting using JMP (SAS for Macintosh). Net-stimulated [^35S]GTPγS binding is defined as [^35S]GTPγS binding in the presence of drug minus basal and percent stimulation is expressed as (net stimulated [^35S]GTPγS binding/basal)×100%. Behavioral Evaluations. All animals were allowed to acclimate to the observation room overnight. Behavioral effects were assessed in the tetrad model in order to measure potency in producing antinociception, catalepsy, hypothermia, and hypomobility. The baselines for tail-flick latency (2-4 seconds) and rectal temperature were determined prior to i.v. injections. Baseline rectal temperatures were measured using a telethermometer and a thermometer probe inserted to 25 mm (Yellow Springs Instrument Co., Yellow Springs, Ohio). The mice were then given either an i.v. i.c.v. injection of the analog. The mice were placed in individual photocell activity chambers 5 min later. Spontaneous activity was monitored for 10 min in a Digiscan Animal Activity Monitor (Omnitech Electronice, Inc., Columbus, Ohio) as measured by the number of interruptions of 16 photocell beams per chamber. The total number of beam interruptions during the 10-min period was determined and presented as total counts.

mice [1] = test: Spontaneous activity (S.A.), mouse tetrad; format: in vivo; settings: for ED50: Mus musculus
mice [2] = test: Tail-flick antinociception (T.F.), mouse tetrad; format: in vivo; settings: for ED50: Mus musculus; for Analgesia in the tail-flick procedure: oral 10 mg/kg
mice [3] = test: Rectal temperature (R.T.), mouse tetrad; format: in vivo; settings: for ED50: Mus musculus
[4] = Procedure: By “water-soluble” we mean that 1 mg of material in 1 ml of water gives a clear solution and is water miscible.
For the in vivo studies, the drugs were dissolved in either saline or emulphor:ethanol:saline (E:E:S) as indicated.

[5] = iv, vehicle E:E:S (1:1:18), read-out: S.A. ED50 (reducing spontaneous activity)
[6] = iv, mice, i.v., vehicle E:E:S (1:1:18), read-out: T.F. ED50 (antinociception in the tail-flick procedure)
[7] = iv, vehicle E:E:S (1:1:18), read-out: R.T. ED50 (lowering rectal temperature)
[8] = 1 mg of analog in 1 ml of water, visual observation
[9] = iv, vehicle saline, read-out: S.A. ED50 (reducing spontaneous activity)
[10] = iv, mice, i.v., vehicle saline, read-out: T.F. ED50 (antinociception in the tail-flick procedure)
[11] = iv, vehicle saline, read-out: R.T. ED50 (lowering rectal temperature)
[12] = iv, figure legends, i.v., vehicle 1:1:18 ethanol:emulphor:saline, read-out: ED50 after i.v. administration, spontaneous activity
[13] = iv, figure legends, mice, i.v., vehicle 1:1:18 ethanol:emulphor:saline, read-out: ED50 after i.v. administration, tail-flick
[14] = iv, figure legends, i.v., vehicle 1:1:18 ethanol:emulphor:saline, read-out: ED50 after i.v. administration, rectal temperature

T1 sequence (P34972 whole entry): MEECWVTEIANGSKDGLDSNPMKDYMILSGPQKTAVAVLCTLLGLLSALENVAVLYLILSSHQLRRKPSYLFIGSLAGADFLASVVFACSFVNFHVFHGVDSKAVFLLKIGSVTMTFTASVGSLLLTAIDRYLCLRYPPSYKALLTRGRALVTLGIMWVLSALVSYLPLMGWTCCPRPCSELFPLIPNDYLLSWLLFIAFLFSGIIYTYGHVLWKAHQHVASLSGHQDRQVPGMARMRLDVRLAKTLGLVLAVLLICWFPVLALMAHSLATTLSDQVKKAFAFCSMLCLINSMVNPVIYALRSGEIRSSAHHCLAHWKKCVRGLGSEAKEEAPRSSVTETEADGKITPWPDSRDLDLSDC

Compound | Ki (human CB2 receptor; Table 1B) [nM] | ED50 (mice [1]; [5]) [µmol/kg] | ED50 (mice [2]; [6]) [µmol/kg] | ED50 (mice [3]; [7]) [µmol/kg] | Solubility (water-soluble) [4] | Ki (human CB2 receptor; Tables 2b, 3b, 4a) | also measured
CC1=CC[C@@H]2[C@@H](C1)c1c(O)cc(C(C)(C)CCCCC(=O)NN3CCCC3)cc1OC2(C)C [O-2543, N-(Pyrrolidin-yl)-carboxamido] | 10.8 ± 0.08 | 0.71 | 0.75 | 8.19 | No | – | –
CC1=CC[C@@H]2[C@@H](C1)c1c(O)cc(C(C)(C)CCCCC(=O)NN3CCCCCC3)cc1OC2(C)C [O-2489, N-(Homo-piperidin-1-yl)-carboxamido] | 35.3 ± 4.48 | 2.07 | 2.53 | 8.5 | No | – | –
CC1=CC[C@@H]2[C@@H](C1)c1c(O)cc(C(C)(C)CCCCC(=O)N3CCCC3)cc1OC2(C)C [O-2399, Pyrrolidino-carboxamido] | 2.86 ± 0.68 | 0.03 | 0.1 | 0.23 | No | – | Water solubility of the hydrochloride salt [4]: none of the HCl salts was water-soluble
CC1=CC[C@@H]2[C@@H](C1)c1c(O)cc(C(C)(C)CCCCC(=O)N3CCN(C)CC3)cc1OC2(C)C [O-2381, Methylepiperazino-carboxamido] | 389 ± 46 | 21.4 | 34 | 51 | No | – | –
CC1=CC[C@@H]2C(C1)c1c(OC(=O)CCCN(C(C)C)C(C)C)cc(C(C)(C)CCCCC(=O)N3CCOCC3)cc1OC2(C)C (some centres unmarked) [O-2694, Diisopropylaminobutyrate of Δ^8-THC-3-(1,1-dimethyl-6-morpholin-4-yl-6-oxo-hexyl)] | – | – | – | – | – | 2.77 ± 0.44 nM | ED50 (mice [1]; Table 4b, vehicle not indicated, read-out: S.A. ED50 (reducing spontaneous activity)): 0.045 µmol/kg; ED50 (mice [2]; Table 4b, mice, vehicle not indicated, read-out: T.F. ED50 (antinociception in the tail-flick procedure)): 0.035 µmol/kg; ED50 (mice [3]; Table 4b, vehicle not indicated, read-out: R.T. ED50 (lowering rectal temperature)): 0.12 µmol/kg; Solubility (water-soluble) [4, 8]: Yes
CC1=CC[C@@H]2[C@@H](C1)c1c(O)cc(C(C)(C)CCCCC(=O)N3CCCCCC3)cc1OC2(C)C [O-2421, Homopiperidino-carboxamido] | 3.45 ± 0.58 | 0.15 | 0.16 | 0.44 | No | – | –
CC1=CC[C@@H]2[C@@H](C1)c1c(O)cc(C(C)(C)CCCCc3ncc[nH]3)cc1OC2(C)C [O-2737, 1H-Imidazol-2-yl] | – | > 24.5 | > 24.5 | > 24.5 | Yes | 14.8 ± 1.14 nM | ED50 (mice [1]; [9]): > 2.2 µmol/kg; ED50 (mice [2]; [10]): > 2.2 µmol/kg; ED50 (mice [3]; [11]): > 2.2 µmol/kg
CC1=CC[C@@H]2[C@@H](C1)c1c(O)cc(C(C)(C)CCCCn3cccn3)cc1OC2(C)C [O-2715, Pyrazol-1-yl] | – | 0.004 | 0.06 | 0.14 | No | 1.52 ± 0.31 nM | ED50 (mice [1]; [12]): 0.004 µmol/kg; ED50 (mice [2]; [13]): 0.06 µmol/kg; Analgesia in the tail-flick procedure (mice [2]; at one hr): 21±6%; ED50 (mice [3]; [14]): 0.14 µmol/kg
1-(2-methyl-4-N-piperidinobutyryloxy) [O-2374] | – | – | – | – | – | 1.1 ± 0.1 nM | S.A. ED50 (reducing spontaneous activity) (mice [1]; i.v., vehicle saline): 0.18 µmol/kg; T.F. ED50 (antinociception in the tail-flick procedure) (mice [2]; mice, i.v., vehicle saline): 0.41 µmol/kg; R.T. ED50 (lowering rectal temperature) (mice [3]; i.v., vehicle saline): 0.72 µmol/kg; Solubility (water-soluble) [4, 8]: Yes
CC1=CC[C@@H]2[C@@H](C1)c1c(O)cc(C(C)(C)CCCCC(N)=O)cc1OC2(C)C [O-2352, Carboxamido] | 0.84 ± 0.05 | 0.16 | 0.84 | 1.72 | No | – | Water solubility of the hydrochloride salt [4]: none of the HCl salts was water-soluble
CC1=CC[C@@H]2[C@@H](C1)c1c(O)cc(C(C)(C)CCCCn3cncn3)cc1OC2(C)C [O-2716, 1,2,4-Triazol-1-yl] | – | 0.03 | 0.09 | 0.15 | No | 0.92 ± 0.07 nM | ED50 (mice [1]; [12]): 0.03 µmol/kg; ED50 (mice [2]; [13]): 0.09 µmol/kg; Antinociception following oral administration (mice [2]; oral, maximum dose tested 10 mg/kg, 30 minutes before testing): failed to produce complete antinociception; ED50 (mice [3]; [14]): 0.15 µmol/kg
CNC(=O)CCCCC(C)(C)c1cc(O)c2c(c1)OC(C)(C)[C@@H]1CC=C(C)C[C@@H]21 [O-2490, N-(Methyl)carboxamido] | 3.16 ± 0.75 | 0.49 | 1.37 | > 2.5 | No | – | –
CC1=CC[C@@H]2[C@@H](C1)c1c(O)cc(C(C)(C)CCCCn3ccnc3)cc1OC2(C)C [O-2545, Imidazol-1-yl] | – | 0.01 | 0.07 | 0.04 | – | 0.12 nM and 0.32 nM | ED50 (mice [1]; iv, figure legends, i.v., saline, read-out: ED50 after i.v. administration, spontaneous activity): 0.09 µmol/kg; ED50 (mice [1]; [9]): 0.09 µmol/kg; ED50 (mice [2]; iv, figure legends, mice, i.v., saline, read-out: ED50 after i.v. administration, tail-flick response): 0.16 µmol/kg; ED50 (mice [2]; [10]): 0.16 µmol/kg; Analgesia in the tail-flick procedure (mice [2]; at two hrs, mean±sem): 85±11%; ED50 (mice [3]; iv, figure legends, i.v., saline, read-out: ED50 after i.v. administration, rectal temperature): 0.29 µmol/kg; ED50 (mice [3]; [11]): 0.29 µmol/kg
CC1=CC[C@@H]2[C@@H](C1)c1c(O)cc(C(C)(C)CCCCC(=O)N3CCOCC3)cc1OC2(C)C [O-2372, Morpholino-carboxamido] | 0.57 ± 0.04 | 0.01 | 0.01 | 0.07 | No | – | Water solubility of the hydrochloride salt [4]: none of the HCl salts was water-soluble
CC1=CC[C@@H]2[C@@H](C1)c1c(O)cc(C(C)(C)CCCCC(=O)NN3CCOCC3)cc1OC2(C)C [O-2544, N-(Morpholin-1-yl)-carboxamido] | 11.4 ± 0.91 | 0.17 | 0.48 | 0.25 | No | – | Water solubility of the hydrochloride salt [4]: none of the HCl salts was water-soluble
CC1=CC[C@@H]2[C@@H](C1)c1c(O)cc(C(C)(C)CCCCn3ccnc3C)cc1OC2(C)C [O-2651, 2-Methyl-imidazol-1-y1] | – | – | – | – | Yes | 1.22 ± 0.28 nM | ED50 (mice [1]; [9]): 1.46 µmol/kg; ED50 (mice [2]; [10]): 1.75 µmol/kg; ED50 (mice [3]; [11]): 3.58 µmol/kg
CC1=CC[C@@H]2[C@@H](C1)c1c(O)cc(C(C)(C)CCCCC(=O)N3CCCCC3)cc1OC2(C)C [O-2373, Piperidino-carboxamido] | 0.96 ± 0.01 | 0.02 | 0.03 | 0.03 | No | – | Water solubility of the hydrochloride salt [4]: none of the HCl salts was water-soluble
